Patent US8168651B2, “Protein kinase modulators” (Cylene Pharmaceuticals, Inc., priority 2008, dated 2012)
Like-named read-outs stand apart in the source and are kept apart here.

How the values were obtained:
[1] = system: HCT-116 human colorectal carcinoma cells; test: Cell-proliferation assay using Alamar Blue dye; type: cell-based; settings: Homo sapiens;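 further: cells exposed to compound for about 4 days, then Alamar Blue added and dye fluorescence read after about 4 h, compared with medium-only control wells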
recombinant human PIM1 = recombinant human PIM1 (Homo sapiens (Human), UniProt P11309); test: PIM-1 kinase activity in cell-free in vitro assay; type: biochemical; settings: for inhibition at 0.5 µM: 500 nM compound, read-out: PIM-1: % inh 500 nM
K-562 [2] = test: Cell proliferation modulatory activity, K-562; type: cell-based; settings: Homo sapiens, K562
MV-4-11 [3] = test: Cell proliferation modulatory activity, MV-4-11; type: cell-based; settings: Homo sapiens, MV4-11
Flt3 = Flt3 (Homo sapiens (Human), UniProt P36888); test: FLT-3 kinase activity in cell free in vitro assay; type: biochemical; settings: read-out: FLT-3
recombinant human CK2 = recombinant human CK2 (Homo sapiens (Human), UniProt P68400); test: CK2 assay (cell-free, 33P-ATP filter plate); type: biochemical; settings: for inhibition at 0.5 µM: 500 nM compound, read-out: CK2: % inh 500 nM; for IC50: 15 um ATP, read-out: CK2 (15 um ATP) IC50
K-562 [4] = test: Cell proliferation modulatory activity, K-562; type: cell-based; settings: Homo sapiens, K562; remark: listed apart in the source
MV-4-11 [5] = test: Cell proliferation modulatory activity, MV-4-11; type: cell-based; settings: Homo sapiens, MV4-11; remark: listed apart in the source
Jurkat = test: Cell proliferation modulatory activity, Jurkat; type: cell-based; settings: Homo sapiens
[6] = HCT-116, read-out: HCT-116 (uM), cell proliferation modulatory activity, HCT-116, first column
[7] = HCT-116, read-out: HCT-116 (uM), cell proliferation modulatory activity, HCT-116, second column
[8] = HCT-116, HCT-116, second HCT-116 column (c8), read-out: HCT-116 (uM), cell proliferation modulatory activity

Sequence of recombinant human CK2 (P68400 whole entry): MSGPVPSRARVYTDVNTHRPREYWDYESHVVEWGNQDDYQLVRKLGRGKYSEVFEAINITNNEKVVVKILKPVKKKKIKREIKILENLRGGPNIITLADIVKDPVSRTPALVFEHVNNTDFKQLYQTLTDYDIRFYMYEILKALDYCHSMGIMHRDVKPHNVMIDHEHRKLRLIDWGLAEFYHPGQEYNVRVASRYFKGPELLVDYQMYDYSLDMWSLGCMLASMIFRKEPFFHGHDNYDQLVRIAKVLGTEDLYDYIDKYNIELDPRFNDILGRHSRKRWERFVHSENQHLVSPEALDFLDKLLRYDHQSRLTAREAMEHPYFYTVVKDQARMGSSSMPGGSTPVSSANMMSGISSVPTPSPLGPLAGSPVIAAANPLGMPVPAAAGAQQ
Sequence of recombinant human CK2 (P67870 whole entry partner): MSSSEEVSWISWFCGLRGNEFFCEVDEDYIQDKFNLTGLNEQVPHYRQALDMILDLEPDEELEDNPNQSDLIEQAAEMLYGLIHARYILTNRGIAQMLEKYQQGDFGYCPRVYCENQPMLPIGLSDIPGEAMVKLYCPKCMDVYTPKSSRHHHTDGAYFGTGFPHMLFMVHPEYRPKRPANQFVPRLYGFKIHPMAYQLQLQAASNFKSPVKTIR
Sequence of Flt3 (P36888 27-993): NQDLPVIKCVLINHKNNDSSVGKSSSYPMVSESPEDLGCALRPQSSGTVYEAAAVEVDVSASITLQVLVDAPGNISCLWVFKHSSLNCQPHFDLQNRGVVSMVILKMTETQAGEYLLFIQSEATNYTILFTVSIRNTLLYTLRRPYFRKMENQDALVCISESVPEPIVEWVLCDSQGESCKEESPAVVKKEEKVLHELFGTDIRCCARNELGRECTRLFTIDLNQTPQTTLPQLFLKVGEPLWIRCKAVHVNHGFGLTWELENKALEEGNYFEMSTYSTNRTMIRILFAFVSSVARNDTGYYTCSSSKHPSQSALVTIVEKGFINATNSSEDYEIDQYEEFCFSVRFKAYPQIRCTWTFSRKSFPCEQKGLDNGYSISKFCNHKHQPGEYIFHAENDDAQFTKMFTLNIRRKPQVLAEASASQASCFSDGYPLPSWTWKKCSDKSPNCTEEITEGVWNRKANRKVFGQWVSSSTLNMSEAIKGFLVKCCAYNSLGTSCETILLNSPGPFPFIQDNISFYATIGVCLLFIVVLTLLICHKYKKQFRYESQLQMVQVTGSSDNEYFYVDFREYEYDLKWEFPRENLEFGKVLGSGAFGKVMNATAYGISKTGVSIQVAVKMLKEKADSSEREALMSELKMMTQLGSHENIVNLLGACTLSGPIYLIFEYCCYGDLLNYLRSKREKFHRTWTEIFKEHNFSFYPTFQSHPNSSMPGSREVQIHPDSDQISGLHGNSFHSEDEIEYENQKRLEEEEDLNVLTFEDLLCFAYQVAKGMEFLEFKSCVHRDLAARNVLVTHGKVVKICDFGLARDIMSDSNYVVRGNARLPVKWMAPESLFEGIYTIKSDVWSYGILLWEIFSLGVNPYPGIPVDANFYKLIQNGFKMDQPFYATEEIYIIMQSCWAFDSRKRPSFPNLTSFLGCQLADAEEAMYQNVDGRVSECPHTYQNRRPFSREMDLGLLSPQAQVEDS
Sequence of recombinant human PIM1 (P11309 whole entry): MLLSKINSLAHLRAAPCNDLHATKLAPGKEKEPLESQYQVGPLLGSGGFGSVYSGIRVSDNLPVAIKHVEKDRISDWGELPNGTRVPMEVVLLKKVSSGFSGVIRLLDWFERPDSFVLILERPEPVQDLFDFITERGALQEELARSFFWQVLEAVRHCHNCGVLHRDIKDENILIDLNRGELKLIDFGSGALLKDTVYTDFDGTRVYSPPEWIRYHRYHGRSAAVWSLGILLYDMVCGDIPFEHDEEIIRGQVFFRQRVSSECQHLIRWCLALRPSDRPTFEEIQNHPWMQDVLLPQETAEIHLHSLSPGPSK

| Structure (SMILES) | inhibition at 0.5 µM (recombinant human PIM1; cell-free) | IC50 (K-562 [2]) | IC50 (MV-4-11 [3]) | IC50 (recombinant human PIM1; cell-free) | inhibition at 0.5 µM (recombinant human PIM1; cell-free assay) | IC50 (Flt3; cell-free assay) | IC50 (K-562 [4]) | IC50 (MV-4-11 [5]) | IC50 [1, 8] | other results |
| --- | --- | --- | --- | --- | --- | --- | --- | --- | --- | --- |
| CN(C)CCNc1nc2cc(C(=O)O)ccc2c2sccc12 | 83.4% | > 10 µM | > 10 µM |  |  |  |  |  |  | IC50 [1, 6]: 10 µM |
| O=C(O)c1ccc2c(c1)nc(NCCN1CCCC1)c1ccsc12 | 67.2% | > 10 µM | > 10 µM | 0.244 µM |  |  |  |  |  | IC50 [1, 6]: 10 µM |
| c1ccc(Nc2nc3cc(-c4nnn[nH]4)ccc3c3sccc23)cc1 | 70.9% | > 10 µM | 1.09 µM | 0.262 µM |  |  |  |  |  | IC50 [1, 6]: 10 µM |
| CN(c1ccccc1)c1nc2cc(C(=O)O)ccc2c2sccc12 | 61.4% | > 10 µM | > 10 µM | 0.404 µM |  |  |  |  |  | IC50 [1, 6]: 10 µM |
| O=C(O)c1ccc2c(c1)nc(Nc1ccc(F)c(Cl)c1)c1ccsc12 | 80.8% | > 10 µM | 0.455 µM | 0.257 µM |  |  |  |  |  | IC50 [1, 6]: 10 µM |
| O=C(O)c1ccc2c(c1)nc(Nc1ccc(Cl)cc1)c1ccsc12 | 69.1% | > 10 µM | 0.258 µM | 0.289 µM |  |  |  |  |  | IC50 [1, 6]: 10 µM |
| CN(C)CCNc1nc2cc(-c3nnn[nH]3)ccc2c2sccc12 | 92.9% | > 10 µM | > 10 µM | 0.047 µM |  |  |  |  |  | IC50 [1, 6]: 10 µM; IC50 [1, 7]: > 10 µM |
| Fc1ccc(Nc2nc3cc(-c4nnn[nH]4)ccc3c3sccc23)cc1 | 74.3% | > 10 µM | 4.53 µM | 0.174 µM |  |  |  |  |  | IC50 [1, 6]: 10 µM |
| O=C(O)c1ccc2c(c1)nc(Nc1ccccc1)c1ccncc12 | 21.9% | 4.01 µM | 6.45 µM | 1.02 µM |  |  |  |  |  |  |
| CN(C)CCNc1nc2cc(C(=O)O)ccc2c2cnccc12 | 63.6% | > 10 µM | > 10 µM | 0.242 µM |  |  |  |  |  |  |
| OCc1cccc(Nc2nc3cc(-c4nnn[nH]4)ccc3c3sccc23)c1 | 87.6% | > 10 µM | 0.609 µM | 0.162 µM |  |  |  |  |  |  |
| NS(=O)(=O)c1cccc(Nc2nc3cc(-c4nnn[nH]4)ccc3c3sccc23)c1 | 83.9% | > 10 µM | > 10 µM | 0.088 µM |  |  |  |  |  | IC50 [1, 7]: 10 µM |
| Brc1cccc(Nc2nc3cc(-c4nnn[nH]4)ccc3c3sccc23)c1 | 65.9% | > 10 µM | 0.549 µM | 0.22 µM |  |  |  |  |  | IC50 [1, 7]: > 10 µM |
| Fc1cccc(Nc2nc3cc(-c4nnn[nH]4)ccc3c3sccc23)c1 | 76.6% | > 10 µM | 0.525 µM | 0.138 µM |  |  |  |  |  | IC50 (Flt3; cell-free): > 0.4 µM |
| N#Cc1cccc(Nc2nc3cc(C(=O)O)ccc3c3sccc23)c1 | 71.4% | > 10 µM | 0.226 µM | 0.213 µM |  |  |  |  |  |  |
| CN(C)CCNC(=O)Cc1cccc(Nc2nc3cc(C(=O)O)ccc3c3sccc23)c1 | 69.2% | > 10 µM | > 10 µM | 0.283 µM |  |  |  |  |  | inhibition at 0.5 µM (recombinant human CK2; cell-free): 53.3%; IC50 ([1]; HCT-116, HCT-116, second column, read-out: HCT-116 (uM), cell proliferation modulatory activity): > 10 µM |
| CNS(=O)(=O)c1cccc(Nc2nc3cc(C(=O)O)ccc3c3sccc23)c1 | 82.8% | > 10 µM | > 10 µM | 0.159 µM |  |  |  |  |  | IC50 [1, 7]: > 10 µM |
| O=C(O)c1ccc2c(c1)nc(Nc1cccc(C(F)(F)F)c1)c1ccsc12 | 74.7% | > 10 µM | > 10 µM | 0.197 µM |  |  |  |  |  | IC50 [1, 7]: > 10 µM |
| O=C(O)c1ccc2c(c1)nc(Nc1ccc(F)c(F)c1)c1ccsc12 | 85.7% | > 10 µM | 0.658 µM | 0.239 µM |  |  |  |  |  | IC50 [1, 7]: 0.832 µM |
| Clc1cccc(Nc2nc3cc(-c4nnn[nH]4)ccc3c3cnccc23)c1 | 48.6% | 8.2 µM | 0.032 µM | 0.863 µM |  |  |  |  |  | IC50 (Flt3; cell-free): 0.305 µM |
| O=C(O)c1ccc2c(c1)nc(Nc1cc(F)cc(Cl)c1)c1ccsc12 | 90% | > 10 µM | 0.745 µM | 0.299 µM |  |  |  |  |  | IC50 [1, 7]: > 10 µM |
| O=C(O)c1ccc2c(c1)nc(Nc1cc(F)cc(F)c1)c1ccncc12 | 92.4% | 3.26 µM | > 10 µM | 0.111 µM |  |  |  |  |  | IC50 [1, 7]: 4.33 µM |

| Structure (SMILES) | inhibition at 0.5 µM (recombinant human PIM1; cell-free) | IC50 (K-562 [2]) | IC50 (MV-4-11 [3]) | IC50 (recombinant human PIM1; cell-free) | inhibition at 0.5 µM (recombinant human PIM1; cell-free assay) | IC50 (Flt3; cell-free assay) | IC50 (K-562 [4]) | IC50 (MV-4-11 [5]) | IC50 [1, 8] | other results |
| --- | --- | --- | --- | --- | --- | --- | --- | --- | --- | --- |
| N#Cc1cc(F)cc(Nc2nc3cc(C(=O)O)ccc3c3sccc23)c1 | 87% | > 10 µM | 1.46 µM | 0.252 µM |  |  |  |  |  | IC50 [1, 7]: > 10 µM |
| N#Cc1cccc(Nc2nc3cc(C(=O)O)ccc3c3cnccc23)c1 | 92.4% | 9.15 µM | > 10 µM | 0.058 µM |  |  |  |  |  | IC50 (Flt3; cell-free): 0.012 µM |
| Fc1cc(F)cc(Nc2nc3cc(-c4nnn[nH]4)ccc3c3sccc23)c1 | 86.9% | > 10 µM | 2.2 µM | 0.414 µM |  |  |  |  |  | IC50 [1, 7]: > 10 µM |
| COC(=O)c1ccc2c(c1)nc(Nc1cccc(Cl)c1)c1ccncc12 | 7.83% | 0.217 µM | 0.161 µM |  |  |  |  |  |  | inhibition at 0.5 µM (recombinant human CK2; cell-free): 13.4%; IC50 (Flt3; cell-free): > 0.4 µM |
| OCc1ccc2c(c1)nc(Nc1cccc(Cl)c1)c1ccncc12 |  |  |  |  | 4.22% | 0.013 µM | 5.52 µM | 0.529 µM |  | IC50 ([1]; HCT-116, read-out: HCT-116 (uM), cell proliferation modulatory activity, HCT-116, second HCT-116 column (c8)): 4.28 µM |
| NC(=O)c1ccc2c(c1)nc(Nc1cccc(C(F)(F)F)c1)c1nc(NC3CC3)ncc12 |  |  |  |  | 12.5% | 0.343 µM | 0.157 µM | 0.149 µM |  | IC50 (Jurkat): 1.16 µM |
| CC(C)OC(=O)Nc1ccc2c(c1)nc(Nc1cccc(C(F)(F)F)c1)c1nc(NC3CC3)ncc12 |  |  |  |  | 10.1% | > 0.4 µM | 0.061 µM | 0.108 µM |  | IC50 (Jurkat): 1.16 µM |
| CN(C)C(=O)c1ccc2c(c1)nc(Nc1cccc(Cl)c1)c1ccncc12 |  |  |  |  | 4.85% | > 0.4 µM | > 10 µM | > 10 µM | 8.17 µM | IC50 (recombinant human CK2; cell-free assay): > 0.75 µM; IC50 (Jurkat): 1.51 µM |
| O=C(NC1CC1)c1ccc2c(c1)nc(Nc1cccc(Cl)c1)c1ccncc12 |  |  |  |  | -5.18% | > 0.4 µM | > 10 µM | > 10 µM | > 10 µM | IC50 (recombinant human CK2; cell-free assay): 0.487 µM; IC50 (Jurkat): 2.16 µM |
| O=C(NCc1ccccc1)c1ccc2c(c1)nc(Nc1cccc(Cl)c1)c1ccncc12 |  |  |  |  | -29.4% | 0.331 µM | > 10 µM | 0.095 µM | > 10 µM |  |
| CN1CCN(C(=O)c2ccc3c(c2)nc(Nc2cccc(Cl)c2)c2ccncc23)CC1 |  |  |  |  | -28.4% | > 0.4 µM | > 10 µM | > 10 µM | > 10 µM |  |
| CN1CCCN(C(=O)c2ccc3c(c2)nc(Nc2cccc(Cl)c2)c2ccncc23)CC1 |  |  |  |  | -11.8% | > 0.4 µM | > 10 µM | 0.171 µM | 2.67 µM |  |
| CC(=O)N1CCN(C(=O)c2ccc3c(c2)nc(Nc2cccc(Cl)c2)c2ccncc23)CC1 |  |  |  |  | -5.01% | > 0.4 µM | > 10 µM | > 10 µM | > 10 µM |  |
| O=C(Nc1nccs1)c1ccc2c(c1)nc(Nc1cccc(Cl)c1)c1ccncc12 |  |  |  |  | -6.62% | > 0.4 µM | > 10 µM | > 10 µM | > 10 µM |  |
| Cc1cnc(CNC(=O)c2ccc3c(c2)nc(Nc2cccc(Cl)c2)c2ccncc23)cn1 |  |  |  |  | -19.8% | 0.362 µM | > 10 µM | > 10 µM | > 10 µM |  |
| O=C(c1ccc2c(c1)nc(Nc1cccc(Cl)c1)c1ccncc12)N1CCOCC1 |  |  |  |  | -14.4% | > 0.4 µM | > 10 µM | > 10 µM | > 10 µM |  |
| O=C(NCc1cccnc1)c1ccc2c(c1)nc(Nc1cccc(Cl)c1)c1ccncc12 |  |  |  |  | -16.2% | > 0.4 µM | > 10 µM | 0.112 µM | > 10 µM |  |
| CC(C)(C)OC(=O)N1CCN(C(=O)c2ccc3c(c2)nc(Nc2cccc(Cl)c2)c2ccncc23)CC1 |  |  |  |  | -7.41% | > 0.4 µM | > 10 µM | > 10 µM | 5.97 µM |  |
| NCCNC(=O)c1ccc2c(c1)nc(Nc1cccc(Cl)c1)c1ccncc12 |  |  |  |  | -19.8% | > 0.4 µM | > 10 µM | > 10 µM | 7.22 µM | IC50 (Jurkat): 7.67 µM |
| O=C(O)c1ccc2c(c1)nc(NCCc1cccc(F)c1)c1ccncc12 [drawing 1560] | 74% |  | > 10 µM | 0.351 µM |  |  |  |  |  | IC50 [1, 7]: > 10 µM |
| NC(=O)c1ccc2c(c1)nc(Nc1cccc(Cl)c1)c1ccncc12 [drawing 1674] |  |  |  |  | -3.44% | 0.003 µM | 1.23 µM | 0.037 µM | 2.13 µM | inhibition at 0.5 µM (recombinant human CK2; cell-free assay): 91.2%; IC50 (recombinant human CK2; cell-free assay): 0.417 µM; IC50 (Jurkat): 0.91 µM |
